“Also recorded” adds a separate entry of the source.
What was measured:
[1] = Accelerated stability study of BrEA and the example 1 formulations; assay type: physicochemical
Protocol: An accelerated stability study of 6 months duration is conducted using BrEA and the formulations from example 1. Samples are taken at 1, 2, 3, 4, 5, and 6 month time points and compared with the specifications listed in example 1. Real time stability (25° C., 60% relative humidity) is conducted using BrEA formulation Lots 1 and 2, with sampling time points at 3, 6, 9, 12, 18, 24, and 36 months. […] The results from the stability testing indicate that BrEA is stable for at least 3 months at elevated temperature and humidity in the Lot 1 and 2 formulations.

[2] = Pharmacokinetics of BrEA after subcutaneous dose in rabbits; assay type: in vivo
Protocol: The nonaqueous BrEA formulation of example 1 was administered as a single subcutaneous dose to rabbits. […] The circulating half-life of the drug in the plasma was about twelve hours.
A pharmacokinetic analysis of ^14C BrEA was conducted in New Zealand White rabbits. Twenty μCi of ^14C 16α-bromo-3-beta-hydroxy-5α-[4-^14C]-androstan-17-one (50 mCi/mmole) plus 1 mg/kg unlabeled BrEA was administered to each of three New Zealand White rabbits as a subcutaneous injection in the scapular region using an injection volume of 1 mL/kg. The drug was formulated in 25% polyethylene glycol 300, 12.5% absolute ethanol, 5% benzyl benzoate, and qs with propylene glycol. Blood samples were taken at 0.5, 1, 2, 4, 8, 12, 24 hours for all three animals, and at 48 hours for two of the animals. Twenty-four and 48 hours after administration, one and two animals respectively, were sacrificed, and the following organs/tissues were collected: brain, heart, kidneys, liver, lungs, skeletal muscle, spleen, and injection site muscle and skin. In addition to the organs and tissues, urine and feces were collected as well as the cage wash.
The average percentages of the administered dose in whole blood was calculated by multiplying the concentration of drug in whole blood by the assumed volume of blood in the animals, 200 mL. The amount of drug in the blood reaches a maximum at around 8 hours, and a small amount was still evident at 48 hours.

[3] = Animal 201, 24 hours, 1 mg/kg s.c.
[4] = Animal 301, 48 hours, 1 mg/kg s.c.
[5] = Animal 301, 48 hours, sample wt. 6 g
[6] = Animal 302, 48 hours, 1 mg/kg s.c.

SMILES: C[C@]12CC[C@H](O)C[C@@H]1CC[C@@H]1[C@@H]2CC[C@]2(C)C(=O)[C@H](Br)C[C@@H]12 [BrEA, 16α-bromo-3β-hydroxy-5α-androstane-17-one]
- assay potency of BrEA ([1]; after 3 months of storage at 40° C. and 75% relative humidity): at least 95 % of the label value
- time BrEA is stable ([1]; elevated temperature and humidity, in the Lot 1 and 2 formulations): at least 3 months
- Percentage of Drug in Organs: Brain [2, 3]: 0.005%
- Percentage of Drug in Organs: Heart [2, 3]: 0.008%
- Percentage of Drug in Organs: Kidneys [2, 3]: 0.155%
- Percentage of Drug in Organs: Liver [2, 3]: 0.76%
- Percentage of Drug in Organs: Lungs [2, 3]: 0.029%
- Percentage of Drug in Organs: Spleen [2, 3]: 0.002%
- Percentage of Drug in Organs: Skeletal muscle ([2]; Animal 201, 24 hours, sample wt. 3.8 g): 0.002%
- Percentage of Drug in Organs: Skin ([2]; Animal 201, 24 hours, sample wt. 8 g): 0.008%
- Percentage of Drug in Organs: Brain [2, 4]: 0.002%
- Percentage of Drug in Organs: Heart [2, 4]: 0.003%
- Percentage of Drug in Organs: Kidneys [2, 4]: 0.055%
- Percentage of Drug in Organs: Liver [2, 4]: 0.145%
- Percentage of Drug in Organs: Lungs [2, 4]: 0.019%
- Percentage of Drug in Organs: Spleen [2, 4]: 0%
- Percentage of Drug in Organs: Skeletal muscle [2, 5]: 0%
- Percentage of Drug in Organs: Skin [2, 5]: 0.002%
- Percentage of Drug in Organs: Brain [2, 6]: 0%
- Percentage of Drug in Organs: Heart [2, 6]: 0.002%
- Percentage of Drug in Organs: Kidneys [2, 6]: 0.050%
- Percentage of Drug in Organs: Liver [2, 6]: 0.125%
- Percentage of Drug in Organs: Lungs [2, 6]: 0.011%
- Percentage of Drug in Organs: Spleen [2, 6]: 0%
- Percentage of Drug in Organs: Skeletal muscle ([2]; Animal 302, 48 hours, sample wt. 5 g): 0%
- Percentage of Drug in Organs: Skin ([2]; Animal 302, 48 hours, sample wt. 9 g): 0.004%
- time of maximum amount of drug in whole blood ([2]; rabbits, 1 mg/kg s.c.): around 8 hours
- drug in the liver ([2]; rabbits, 1 mg/kg s.c., 24 hours): approximately 0.8 % of the injected dose
- drug in the liver ([2]; rabbits, 1 mg/kg s.c., 48 hours): ~0.12 % of the injected dose
- drug in the liver, average ([2]; rabbits, 1 mg/kg s.c., average printed after the 48 hours value): 0.13%
- accumulation in organs ([2]; rabbits, s.c. dose): did not accumulate to a significant extent in any major organ; also recorded: did not accumulate to a significant degree in any of the organs
- route of excretion ([2]; rabbits, s.c. dose): primarily excreted in the urine
- circulating half-life of the drug in the plasma ([2]; rabbits, single s.c. dose): about twelve
- maximum concentration in the plasma ([2]; rabbits, single s.c. dose, at eight to twelve hours post administration): about 1.2 % of the injected dose
- drug left the injection site ([2]; rabbits, single subcutaneous dose, formulation of example 1, within 24 hours): More than 90%
